Test results reported in PubChem BioAssay (NCI).
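Dose response: 5 concentrations. Exposure: 48 h. Format: 96-well plates. Endpoint: linear interpolation; highest concentration if not reached. TGI denotes the concentration required for complete inhibition of growth.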

Experiments:
Test in all cases: NCI anticancer screen, dose series, 48 h
[1] = system: TK-10 renal
[2] = system: T-47D breast
[3] = system: HCT-15 colon
[4] = system: HT29 colon
[5] = system: NCI-H226 lung
[6] = system: MDA-MB-231 breast
[7] = system: IGROV1 ovarian
[8] = system: 786-0 renal
[9] = system: K-562 leukemia
[10] = system: KM12 colon
[11] = system: HOP-62 NSCLC
[12] = system: OVCAR-3 ovarian
[13] = system: BT-549 breast
[14] = system: NCI-H460 lung
[15] = system: PC-3 prostate
[16] = system: HL-60(TB) leukemia
[17] = system: NCI-H522 lung

Structure (SMILES) | TGI [1] [µM] | TGI [2] [µM] | TGI [3] [µM] | TGI [4] [µM] | TGI [5] [µM] | TGI [6] [µM] | TGI [7] [µM] | TGI [8] [µM] | TGI [9] [µM] | TGI [10] [µM] | TGI [11] [µM] | TGI [12] [µM] | TGI [13] [µM] | TGI [14] [µM] | TGI [15] [µM] | TGI [16] [µM] | TGI [17] [µM]
COc1ccc2c(c1)nc1n2C(c2c(F)cccc2Cl)SC1 (stereo not given) | > 76.8 | > 52.5 | > 37.2 | > 100 | 43.4 | 27.9 | > 100 | > 41.1 | > 100 | > 54.4 | > 44.6 | > 26.1 | > 31.3 | > 35.1 | > 51.6 | – | –
COC(=O)/C=C1/N=C(N(C)/N=C/c2ccccc2)NC1=O | > 100 | > 100 | > 100 | > 100 | – | > 100 | > 100 | > 100 | > 100 | > 100 | > 100 | > 100 | > 100 | > 100 | > 100 | > 100 | > 100
Cc1c[nH]c(C(=O)O)c1-c1ccc2c(-c3ccccc3)nc3ccccc3n12 | > 100 | > 100 | 94.1 | 70.5 | 57.8 | 95 | 77.8 | > 100 | > 100 | 56.8 | 46.4 | 37.4 | > 100 | > 100 | > 100 | – | 60.6
Cc1nc2ccccc2c(=O)n1NC(=O)c1ccccc1O | > 100 | – | > 100 | > 100 | > 100 | > 100 | > 100 | > 100 | > 100 | > 100 | > 100 | > 100 | > 100 | > 100 | > 100 | > 100 | > 100
C=C(C)[C@@]1(O)CCC[C@H]1NC(=O)OC(C)(C)C | > 100 | > 100 | > 100 | > 100 | > 100 | > 100 | > 100 | > 100 | – | > 100 | > 100 | > 100 | > 100 | > 100 | > 100 | – | > 100
C[C@@H](NC(=O)OC1C=CC2(CC1)C(=O)N(C)c1ccccc12)c1cccc2ccccc12 (stereo not given in full) | > 25 | > 25 | > 25 | > 25 | > 25 | > 25 | > 25 | > 25 | > 25 | > 25 | > 25 | > 25 | – | > 25 | > 25 | 14.7 | > 25
COC(=O)C(Cc1ccccc1I)C1=CCC2(CC1)OCCO2 (stereo not given) | > 100 | 39.7 | > 100 | > 100 | > 100 | > 100 | > 100 | > 100 | > 100 | 76.2 | > 100 | 81.3 | – | > 100 | 93.8 | 41.5 | 53.7
Cc1ccc(CS(=O)(=O)C/N=c2\sc3ccccc3nc2/C=C(\O)c2ccc(Cl)cc2)cc1 | > 10 | > 10 | > 10 | > 10 | – | > 10 | > 10 | > 10 | > 10 | > 10 | > 10 | > 10 | > 10 | – | > 10 | – | > 10
C=C1CC(Cn2cc(C)c(=O)[nH]c2=O)(c2ccc(-c3ccccc3)cc2)OC1=O (stereo not given) | 2.76 | 5.51 | 3.72 | 2.42 | 35.5 | 5.16 | 3.74 | 2.22 | 2.3 | 7.36 | 29.4 | 1.66 | 3.08 | 20.8 | 5.31 | – | 3.59
O=C1c2ccccc2C(=O)N1CCCCCCNOCCCN1C(=O)c2ccccc2C1=O | > 100 | 65 | > 100 | > 100 | > 100 | > 100 | > 100 | > 100 | 98.2 | 78.8 | > 100 | > 100 | 85.4 | > 100 | > 100 | – | 79.3
Cc1ccc2[nH]c3[nH]c(=O)[nH]c(=O)c3c2c1 | > 100 | > 100 | > 100 | > 100 | > 100 | – | > 100 | > 100 | > 100 | > 100 | > 100 | > 100 | > 100 | – | – | > 100 | > 100
CCn1c(=O)ccc2ccc(N(CCO)CCO)nc21 | > 100 | > 100 | > 100 | > 100 | > 100 | > 100 | > 100 | > 100 | > 100 | > 100 | > 100 | > 100 | > 100 | > 100 | > 100 | – | > 100
N=C(N)n1[nH]c2c(c1=O)CCCC2 | > 100 | > 100 | > 100 | > 100 | > 100 | > 100 | > 100 | > 100 | > 100 | > 100 | > 100 | > 100 | – | > 100 | > 100 | > 100 | > 100
CC(C)N=C(NC#N)NS(=O)(=O)c1cnccc1Nc1ccc(Cl)cc1 | > 100 | > 100 | > 100 | > 100 | > 100 | > 100 | > 100 | > 100 | > 100 | > 100 | > 100 | > 100 | > 100 | – | > 100 | – | > 100
CN(C)CC(CO)(CN(C)C)CN(C)C | > 100 | – | > 100 | > 100 | > 100 | – | > 100 | > 100 | > 100 | > 100 | > 100 | > 100 | > 100 | > 100 | > 100 | > 100 | > 100
CCCCCC(=O)OCC1(CO)C/C(=C\CC(C(C)C)C(C)C)C(=O)O1 (stereo not given) | > 100 | > 100 | > 100 | > 100 | > 100 | > 100 | > 100 | > 100 | 77.5 | > 100 | > 100 | > 100 | > 100 | > 100 | > 100 | – | 81.3
CC(=O)OCC12C(OC(C)=O)C[C@@H](C)C3(CC(c4ccoc4)OC3=O)C1CCC(O)C21CO1 (stereo not given in full) | > 100 | – | > 100 | > 100 | > 100 | > 100 | > 100 | > 100 | > 100 | > 100 | > 100 | > 100 | > 100 | – | > 100 | > 100 | > 100
O=c1cc(-c2ccccc2)oc2ccc(Oc3nnnn3-c3ccccc3)cc12 | > 100 | > 100 | > 100 | > 100 | > 100 | – | > 100 | > 100 | > 100 | > 100 | > 82.3 | > 100 | 70.7 | > 100 | > 100 | > 100 | > 100
CN1CCN(C(=S)N(C(=O)c2ccco2)c2ccccc2)CC1 | > 100 | > 100 | > 100 | > 100 | > 100 | > 100 | > 100 | > 100 | > 100 | > 100 | – | > 100 | > 100 | > 100 | – | > 100 | > 100
CCN1CC2=C(NC(=S)NC2c2cc(OC)c(OC)c(OC)c2)/C(=C/c2cc(OC)c(OC)c(OC)c2)C1 (stereo not given) | > 100 | – | > 100 | > 100 | > 100 | > 100 | > 100 | > 100 | 66.3 | > 100 | > 100 | > 100 | > 100 | > 100 | > 100 | 56.7 | 55.9
COP1(=O)NCc2ncccc2O1 (stereo not given) | – | > 100 | > 100 | > 100 | > 100 | > 100 | > 100 | > 100 | > 100 | > 100 | > 100 | > 100 | > 100 | > 100 | > 100 | – | –
Cc1ccc(-n2c(Cn3nnc(-c4cccnc4)n3)nn(C3OC(COC(=O)c4ccccc4)C(OC(=O)c4ccccc4)C3OC(=O)c3ccccc3)c2=S)cc1 (stereo not given) | > 100 | > 100 | > 100 | > 100 | > 100 | > 100 | > 100 | > 100 | > 100 | > 100 | > 100 | > 100 | > 100 | > 100 | > 100 | – | > 100
COC(=NCCC1=CCCCC1)OC | > 100 | > 100 | > 100 | 82.9 | – | > 100 | > 100 | > 100 | > 100 | > 100 | > 100 | > 100 | > 100 | > 100 | > 100 | – | > 100
[N-]=[N+]=Nc1c([N+](=O)[O-])c(Cl)nc2ccccc12 | 3.78 | 4.82 | 3.77 | 5.09 | 33.5 | 3.65 | 4.04 | 1.11 | 1.74 | 21.1 | 41.4 | 2.86 | 3.11 | 33.2 | 4.75 | – | 0.866
O=C(/C=C(\Nc1ccccc1O)c1ccccc1)C(=O)NC12CC3CC(CC(C3)C1)C2 | > 10 | > 10 | > 10 | 5.87 | > 10 | > 10 | > 10 | > 10 | > 10 | > 10 | > 10 | > 10 | – | > 10 | > 10 | > 10 | > 10
COc1ccc(C2=NN(c3ccccc3)C(c3cc4cc(Br)ccc4nc3Cl)C2)cc1 (stereo not given) | – | > 25 | > 25 | > 25 | > 25 | – | > 25 | > 25 | > 25 | > 25 | > 25 | > 25 | > 25 | – | > 25 | > 25 | > 25
O=C(N/N=C1/C(=O)c2c3ccccc3cc3cccc1c23)c1cccc(Cl)c1 | – | – | > 100 | > 100 | > 100 | > 100 | > 100 | > 100 | > 100 | > 100 | > 100 | > 100 | > 100 | > 100 | > 100 | > 100 | –
O=C1CC(=O)c2c(Cl)sc(Cl)c21 | > 100 | > 100 | > 100 | > 100 | > 100 | > 100 | > 100 | > 100 | > 100 | > 100 | > 100 | > 100 | > 100 | > 100 | – | 85.6 | 47.1
CC(C)[Si](OC1=C(C(=O)N(C)c2ccccc2Cl)CCC1)(C(C)C)C(C)C | 39.1 | 47.1 | 30.6 | 29 | 40.3 | 30.9 | 33 | 48.9 | – | 50.2 | 32.3 | 31.2 | 29.8 | 62.1 | – | – | 28.6
Nc1nc(NNc2ccc(Cl)c(Cl)c2)cc(=O)[nH]1 | > 100 | – | 58.7 | > 100 | > 100 | > 100 | > 100 | 67.5 | 54.7 | > 100 | > 100 | 59.5 | 82.5 | > 100 | > 100 | 64.4 | –
